Test results published in ChEMBL document CHEMBL1201862, “PubChem BioAssay data set” (2004).
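Tested at 5 concentrations; 48 h exposure; 96-well plates; endpoints linearly interpolated, else capped at highest concentration. The concentration for 50% growth inhibition is given as GI50.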 Calls of active or inactive are those of the source. Cut-off read from the data, not from the text of the source: active = GI50 up to about 1.1 µM and inactive = higher.

Key:
Assay in all cases: NCI-60 cell line screen, 48 h
KM-20L2 = tested on: KM-20L2
UACC-257 = tested on: UACC-257
A549 = tested on: A549
SF-295 = tested on: SF-295
OVCAR-3 = tested on: OVCAR-3
MOLT-4 = tested on: MOLT-4
SW-620 = tested on: SW-620
EKVX = tested on: EKVX
HOP-18 = tested on: HOP-18
CCRF-CEM = tested on: CCRF-CEM
HCT-116 = tested on: HCT-116
HL-60 = tested on: HL-60
OVCAR-4 = tested on: OVCAR-4
ACHN = tested on: ACHN
HT-29 = tested on: HT-29
UO-31 = tested on: UO-31
RXF 393 = tested on: RXF 393
DMS-114 = tested on: DMS-114
SNB-19 = tested on: SNB-19
SK-MEL-2 = tested on: SK-MEL-2
Malme-3M = tested on: Malme-3M
K562 = tested on: K562
LXFL 529 = tested on: LXFL 529
SK-MEL-28 = tested on: SK-MEL-28
UACC-62 = tested on: UACC-62
HOP-62 = tested on: HOP-62
IGROV-1 = tested on: IGROV-1
OVCAR-5 = tested on: OVCAR-5
NCI-H460 = tested on: NCI-H460
NCI-H23 = tested on: NCI-H23
SK-OV-3 = tested on: SK-OV-3
A498 = tested on: A498
U-251 = tested on: U-251
DLD-1 = tested on: DLD-1
LOX IMVI = tested on: LOX IMVI
NCI-H522 = tested on: NCI-H522
COLO 205 = tested on: COLO 205
CAKI-1 = tested on: CAKI-1
HOP-92 = tested on: HOP-92
HCT-15 = tested on: HCT-15
SK-MEL-5 = tested on: SK-MEL-5
M14 = tested on: M14
SNB-78 = tested on: SNB-78
KM12 = tested on: KM12
TK-10 = tested on: TK-10
XF498 = tested on: XF498
SF-539 = tested on: SF-539
OVCAR-8 = tested on: OVCAR-8
HCC 2998 = tested on: HCC 2998
NCI-H226 = tested on: NCI-H226
SNB-75 = tested on: SNB-75
DMS-273 = tested on: DMS-273
SF-268 = tested on: SF-268
M19-MEL = tested on: M19-MEL
786-0 = tested on: 786-0
SN12C = tested on: SN12C
RPMI-8226 = tested on: RPMI-8226
SR = tested on: SR

Cc1noc2cccc(O)c12
GI50 (KM-20L2): > 100 µM (inactive)
GI50 (UACC-257): > 100 µM (inactive)
GI50 (A549): > 100 µM (inactive)
GI50 (SF-295): > 100 µM (inactive)
GI50 (OVCAR-3): > 100 µM (inactive)
GI50 (MOLT-4): > 100 µM (inactive)
GI50 (SW-620): > 100 µM (inactive)
GI50 (EKVX): > 100 µM (inactive)
GI50 (HOP-18): > 100 µM (inactive)
GI50 (CCRF-CEM): > 100 µM (inactive)
GI50 (HCT-116): > 100 µM (inactive)
GI50 (HL-60): > 100 µM (inactive)
GI50 (OVCAR-4): > 100 µM (inactive)
GI50 (ACHN): > 100 µM (inactive)
GI50 (HT-29): > 100 µM (inactive)
GI50 (UO-31): > 100 µM (inactive)
GI50 (RXF 393): > 100 µM (inactive)
GI50 (DMS-114): > 100 µM (inactive)
GI50 (SNB-19): > 100 µM (inactive)
GI50 (SK-MEL-2): > 100 µM (inactive)
GI50 (Malme-3M): > 100 µM (inactive)
GI50 (K562): > 100 µM (inactive)
GI50 (LXFL 529): > 100 µM (inactive)
GI50 (SK-MEL-28): > 100 µM (inactive)
GI50 (UACC-62): > 100 µM (inactive)
GI50 (HOP-62): > 100 µM (inactive)
GI50 (IGROV-1): > 100 µM (inactive)
GI50 (OVCAR-5): > 100 µM (inactive)
GI50 (NCI-H460): > 100 µM (inactive)
GI50 (NCI-H23): > 100 µM (inactive)
GI50 (SK-OV-3): > 100 µM (inactive)
GI50 (A498): > 100 µM (inactive)
GI50 (U-251): > 100 µM (inactive)
GI50 (DLD-1): > 100 µM (inactive)
GI50 (LOX IMVI): > 100 µM (inactive)
GI50 (NCI-H522): > 100 µM (inactive)
GI50 (COLO 205): > 100 µM (inactive)
GI50 (CAKI-1): > 100 µM (inactive)
GI50 (HOP-92): > 100 µM (inactive)
GI50 (HCT-15): > 100 µM
GI50 (SK-MEL-5): > 100 µM (inactive)
GI50 (M14): > 100 µM (inactive)
GI50 (SNB-78): > 100 µM (inactive)
GI50 (KM12): > 100 µM (inactive)
GI50 (TK-10): > 100 µM (inactive)
GI50 (XF498): > 100 µM (inactive)
GI50 (SF-539): > 100 µM (inactive)
GI50 (OVCAR-8): > 100 µM (inactive)
GI50 (HCC 2998): > 100 µM (inactive)
GI50 (NCI-H226): > 100 µM (inactive)
GI50 (SNB-75): > 100 µM (inactive)
GI50 (DMS-273): > 100 µM (inactive)
GI50 (SF-268): > 100 µM (inactive)
GI50 (M19-MEL): > 100 µM (inactive)
GI50 (786-0): > 100 µM (inactive)
GI50 (SN12C): > 100 µM (inactive)

CC(C)=CC(=O)Oc1ccc([N+](=O)[O-])cc1
GI50 (KM-20L2): > 100 µM (inactive)
GI50 (UACC-257): > 100 µM (inactive)
GI50 (A549): > 100 µM (inactive)
GI50 (SF-295): > 100 µM (inactive)
GI50 (OVCAR-3): > 100 µM (inactive)
GI50 (MOLT-4): > 100 µM (inactive)
GI50 (SW-620): > 100 µM (inactive)
GI50 (EKVX): > 100 µM (inactive)
GI50 (HOP-18): > 100 µM (inactive)
GI50 (CCRF-CEM): > 100 µM (inactive)
GI50 (HCT-116): > 100 µM (inactive)
GI50 (HL-60): 24.7 µM (inactive)
GI50 (OVCAR-4): > 100 µM (inactive)
GI50 (ACHN): > 100 µM (inactive)
GI50 (HT-29): > 100 µM (inactive)
GI50 (UO-31): > 100 µM (inactive)
GI50 (RXF 393): > 100 µM (inactive)
GI50 (DMS-114): > 100 µM (inactive)
GI50 (SNB-19): > 100 µM (inactive)
GI50 (SK-MEL-2): > 100 µM (inactive)
GI50 (Malme-3M): > 100 µM (inactive)
GI50 (K562): > 100 µM (inactive)
GI50 (LXFL 529): > 100 µM (inactive)
GI50 (UACC-62): > 100 µM (inactive)
GI50 (HOP-62): > 100 µM (inactive)
GI50 (IGROV-1): > 100 µM (inactive)
GI50 (OVCAR-5): > 100 µM (inactive)
GI50 (NCI-H460): > 100 µM (inactive)
GI50 (NCI-H23): > 100 µM (inactive)
GI50 (SK-OV-3): > 100 µM (inactive)
GI50 (A498): > 100 µM (inactive)
GI50 (U-251): > 100 µM (inactive)
GI50 (DLD-1): > 100 µM (inactive)
GI50 (NCI-H522): 2.18 µM (inactive)
GI50 (COLO 205): > 100 µM (inactive)
GI50 (CAKI-1): 20.7 µM (inactive)
GI50 (HOP-92): > 100 µM (inactive)
GI50 (HCT-15): > 100 µM
GI50 (SK-MEL-5): > 100 µM (inactive)
GI50 (M14): > 100 µM (inactive)
GI50 (SNB-78): > 100 µM (inactive)
GI50 (RPMI-8226): > 100 µM (inactive)
GI50 (KM12): 38.3 µM (inactive)
GI50 (TK-10): > 100 µM (inactive)
GI50 (XF498): > 100 µM (inactive)
GI50 (SF-539): > 100 µM (inactive)
GI50 (OVCAR-8): > 100 µM (inactive)
GI50 (SR): > 100 µM (inactive)
GI50 (HCC 2998): > 100 µM (inactive)
GI50 (NCI-H226): > 100 µM (inactive)
GI50 (SNB-75): > 100 µM (inactive)
GI50 (DMS-273): > 100 µM (inactive)
GI50 (SF-268): > 100 µM (inactive)
GI50 (M19-MEL): > 100 µM (inactive)
GI50 (786-0): > 100 µM (inactive)
GI50 (SN12C): > 100 µM (inactive)

Cc1ccc(-c2nnc(-c3nn(-c4ccccc4)c4nc5ccccc5nc34)o2)cc1
GI50 (KM-20L2): 42.4 µM (inactive)
GI50 (UACC-257): 35.9 µM (inactive)
GI50 (A549): 13.3 µM (inactive)
GI50 (SF-295): 15.6 µM (inactive)
GI50 (OVCAR-3): 14.1 µM (inactive)
GI50 (MOLT-4): 16 µM (inactive)
GI50 (SW-620): 35.6 µM (inactive)
GI50 (EKVX): 29.9 µM (inactive)
GI50 (HOP-18): 27.9 µM (inactive)
GI50 (CCRF-CEM): 3.59 µM (inactive)
GI50 (HCT-116): 12 µM (inactive)
GI50 (HL-60): 11 µM (inactive)
GI50 (OVCAR-4): 3.01 µM (inactive)
GI50 (ACHN): 14.4 µM (inactive)
GI50 (HT-29): 41.7 µM (inactive)
GI50 (UO-31): 20.4 µM (inactive)
GI50 (RXF 393): 6.05 µM (inactive)
GI50 (DMS-114): 15.8 µM (inactive)
GI50 (SNB-19): 21.5 µM (inactive)
GI50 (SK-MEL-2): 16 µM (inactive)
GI50 (K562): 11.4 µM (inactive)
GI50 (LXFL 529): 10.6 µM (inactive)
GI50 (SK-MEL-28): 26.6 µM (inactive)
GI50 (UACC-62): 14.2 µM (inactive)
GI50 (HOP-62): 13.5 µM (inactive)
GI50 (IGROV-1): 17.6 µM (inactive)
GI50 (OVCAR-5): > 100 µM (inactive)
GI50 (NCI-H460): 9.04 µM (inactive)
GI50 (NCI-H23): 14 µM (inactive)
GI50 (SK-OV-3): 10.8 µM (inactive)
GI50 (U-251): 11.8 µM (inactive)
GI50 (DLD-1): 16.9 µM (inactive)
GI50 (LOX IMVI): 15.7 µM (inactive)
GI50 (NCI-H522): 17.9 µM (inactive)
GI50 (COLO 205): 47.2 µM (inactive)
GI50 (CAKI-1): 11.7 µM (inactive)
GI50 (HOP-92): 7.52 µM (inactive)
GI50 (HCT-15): 21.4 µM
GI50 (SK-MEL-5): 10.9 µM (inactive)
GI50 (M14): 25.8 µM (inactive)
GI50 (SNB-78): 19.8 µM (inactive)
GI50 (RPMI-8226): 8.38 µM (inactive)
GI50 (KM12): 17.8 µM (inactive)
GI50 (TK-10): 14 µM (inactive)
GI50 (XF498): 11.4 µM (inactive)
GI50 (SF-539): 3.03 µM (inactive)
GI50 (OVCAR-8): 10.9 µM (inactive)
GI50 (SR): 9.73 µM (inactive)
GI50 (NCI-H226): 13.2 µM (inactive)
GI50 (SNB-75): 4.1 µM (inactive)
GI50 (DMS-273): 20.1 µM (inactive)
GI50 (SF-268): 11.1 µM (inactive)
GI50 (M19-MEL): 22.1 µM (inactive)
GI50 (786-0): 9.93 µM (inactive)
GI50 (SN12C): 22.4 µM (inactive)
